Reference: patent publication US20230116703A1, “NOVEL ERGOLINES AND METHODS OF TREATING MOOD DISORDERS” (priority 2021, published 2023)
Read-outs that look alike come from different tables or passages of the source.

Tests used:
[1] = target: T1, 5-HT2A receptor (Homo sapiens, UniProt P28223); test: biochemical; type: binding; details: for 5-HT2A receptor binding affinity / potency (in words): radioligand binding
T1 construct: host or cells: HEK293
Description: Affinity of the test compounds for the 5-HT2A receptor was determined in radioligand binding experiments with [^3H]ketanserin by WuXi AppTec (Hong Kong) Limited, using methods adapted from the literature and under conditions described in Table 1.

[2] = target: T2, 5-HT1A receptor (Homo sapiens, UniProt P08908); test: cell-based
T2 construct: host or cells: CHO cells
T2 sequence (P08908 1-422): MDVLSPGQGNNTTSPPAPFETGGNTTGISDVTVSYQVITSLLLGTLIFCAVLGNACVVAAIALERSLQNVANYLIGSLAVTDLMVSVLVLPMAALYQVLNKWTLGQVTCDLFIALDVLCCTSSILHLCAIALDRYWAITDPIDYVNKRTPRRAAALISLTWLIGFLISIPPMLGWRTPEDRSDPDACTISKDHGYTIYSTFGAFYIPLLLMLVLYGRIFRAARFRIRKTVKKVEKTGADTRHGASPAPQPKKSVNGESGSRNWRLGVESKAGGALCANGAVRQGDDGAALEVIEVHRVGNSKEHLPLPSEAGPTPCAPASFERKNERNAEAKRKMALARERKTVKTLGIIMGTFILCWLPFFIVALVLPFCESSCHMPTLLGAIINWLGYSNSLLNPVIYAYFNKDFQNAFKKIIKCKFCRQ
Description: (§1) Functional Assays at 5-HT2A, 5-HT2B, and 5-HT1A. Agonist activity at 5-HT2A, 5-HT2B, and 5-HT1A receptors was determined using a FLIPR Ca^2+ flux assay at WuXi AppTec (Hong Kong) Limited according to their standard protocols. Briefly, stably transfected cells expressing the receptor of interest (HEK293 for 5-HT2A and 5-HT2B; CHO cells for 5-HT1A) were grown and plated in a 384 well plate and incubated at 37° C. and 5% CO2 overnight. A solution of 250 mM probenecid in 1 mL FLIPR assay buffer was prepared fresh. This was combined with a fluorescent dye (Fluo-4 Direct™) to make a final assay concentration of 2.5 mM. […] The fluorescent dye was then added to the assay plate along with assay buffer to a final volume of 40 μL. The cell plate was incubated for 50 min at 37° C. and 5% CO2 and placed into the FLIPR Tetra along with the compound plate. 10 μL of references and compounds were then transferred from the compound plate into the cell plate and the fluorescent signal was read.

[3] = target: T3, 5-HT2B receptor (Homo sapiens, UniProt P41595); test: cell-based
T3 construct: host or cells: HEK293
T3 sequence (P41595 whole entry): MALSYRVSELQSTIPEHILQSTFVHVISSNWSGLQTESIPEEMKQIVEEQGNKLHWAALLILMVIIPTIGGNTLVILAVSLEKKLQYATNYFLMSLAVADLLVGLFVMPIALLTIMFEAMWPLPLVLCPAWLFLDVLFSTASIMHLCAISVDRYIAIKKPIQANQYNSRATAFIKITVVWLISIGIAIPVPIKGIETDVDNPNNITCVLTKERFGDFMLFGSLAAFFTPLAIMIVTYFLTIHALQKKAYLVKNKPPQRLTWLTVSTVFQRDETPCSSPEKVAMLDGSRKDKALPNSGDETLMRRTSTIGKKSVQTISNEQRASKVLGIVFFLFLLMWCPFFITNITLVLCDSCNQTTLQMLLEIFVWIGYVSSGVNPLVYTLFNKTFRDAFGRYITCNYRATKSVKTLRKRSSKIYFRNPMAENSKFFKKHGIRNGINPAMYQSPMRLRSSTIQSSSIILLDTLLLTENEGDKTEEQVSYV
Description: as §1

[4] = target: 5-HT1B receptor (Homo sapiens, UniProt P28222); test: cAMP accumulation agonist assay at 5-HT1B; type: cell-based
Sequence of 5-HT1B receptor (P28222 whole entry): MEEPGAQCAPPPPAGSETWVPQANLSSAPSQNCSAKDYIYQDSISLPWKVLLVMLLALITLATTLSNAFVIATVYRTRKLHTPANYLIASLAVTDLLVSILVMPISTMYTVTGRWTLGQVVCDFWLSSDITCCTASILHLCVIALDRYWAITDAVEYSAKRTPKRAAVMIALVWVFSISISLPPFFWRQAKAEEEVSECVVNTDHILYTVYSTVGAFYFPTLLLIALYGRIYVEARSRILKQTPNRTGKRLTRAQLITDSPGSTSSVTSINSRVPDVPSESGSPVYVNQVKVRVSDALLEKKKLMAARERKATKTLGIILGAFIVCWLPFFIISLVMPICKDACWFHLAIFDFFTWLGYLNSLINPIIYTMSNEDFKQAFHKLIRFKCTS
Description: Disclosed compounds were tested for agonist activity at several serotonin receptor subtypes (5-HT2A, […], 5-HT2C, and 5-HT1A) using Ca^2+ flux functional assays and the 5-HT1B receptor using a cAMP accumulation assay, with the results summarized in Table 4. […] Potent agonist activity was also observed at the other serotonin receptors tested, although the selectivity profile among the receptors varied across compounds. […]. However, at the same time, the N-propyl compounds were more efficacious agonists at 5-HT2B than the corresponding N-methyl compounds. The selectivity of disclosed compounds for 5-HT2A over 5-HT2C and 5-HT1A was less predictable and varied widely across compounds, ranging from ˜1:6 to ˜20:1 (2C/2A) in the case of 5-HT2C and from ˜1:4 to >100:1 (1A/2A) in the case of 5-HT1A. […] An azetidinyl amide substituent tended to increase potency at 5-HT1A relative to 5-HT2A.
Functional Assay at 5-HT1B. Agonist activity at 5-HT1B was determined using a cAMP accumulation protocol at WuXi AppTec (Hong Kong) Limited according to their standard protocols. Briefly, stably transfected cells were plated in an OptiPlate-384 well plate, incubated at RT for 60 mins, and cAMP standard solution (800 nM, 10 μL) was added to the blank well. Then, 10 μL detection reagent was added to each well, the plate incubated for 60 mins at RT, and the plate read using EnVision.

[5] = target: T1, 5-HT2A receptor; test: cell-based; type: cell-based
Description: as §1

[6] = Metabolic stability in human liver microsomes (HLM); type: in vitro ADME; details: both sexes, human, pH 7.4, 0.50 mg protein per mL
Text: HLM Stability. Pooled HLM from adult male and female donors (Corning 452117) were used.

[7] = 1 nM [^3H]ketanserin, HEK293 stable cell line, read-out: 5-HT2A Receptor Ki (nM) ([^3H]ketanserin)
[8] = Ca^2+ flux, agonist, read-out: 5-HT1A EC50
[9] = Ca^2+ flux, agonist, read-out: 5-HT2B EC50
[10] = cAMP, agonist, read-out: 5-HT1B EC50
[11] = Ca^2+ flux, agonist, read-out: 5-HT2A EC50

T1 sequence (P28223 whole entry): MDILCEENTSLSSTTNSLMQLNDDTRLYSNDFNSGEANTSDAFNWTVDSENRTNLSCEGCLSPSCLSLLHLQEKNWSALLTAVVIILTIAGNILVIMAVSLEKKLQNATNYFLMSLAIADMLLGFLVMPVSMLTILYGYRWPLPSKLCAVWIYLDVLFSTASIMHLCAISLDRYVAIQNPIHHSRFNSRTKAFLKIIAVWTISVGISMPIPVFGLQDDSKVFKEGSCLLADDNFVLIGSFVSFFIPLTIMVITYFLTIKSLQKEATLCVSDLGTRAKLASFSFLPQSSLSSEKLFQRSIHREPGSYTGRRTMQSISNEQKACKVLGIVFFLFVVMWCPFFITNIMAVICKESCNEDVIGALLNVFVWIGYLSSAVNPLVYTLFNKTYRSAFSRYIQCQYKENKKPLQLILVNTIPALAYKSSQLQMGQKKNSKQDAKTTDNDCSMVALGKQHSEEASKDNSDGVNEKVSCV

| SMILES | Ki [1, 7] [nM] | 5-HT2A receptor binding affinity / potency (in words) [1] | 5-HT1A % Act @ Max Dose ([2]; Ca^2+ flux, agonist) [%] | EC50 [2, 8] [nM] | 5-HT2B % Act @ Max Dose ([3]; Ca^2+ flux, agonist) [%] | EC50 [3, 9] [nM] | 5-HT1B % Act @ Max Dose ([4]; cAMP, agonist) [%] | EC50 [4, 10] [nM] | 5-HT2A % Act @ Max Dose ([5]; Ca^2+ flux, agonist) [%] | EC50 [5, 11] [nM] | half-life at 1 μM ([6]; pooled human liver microsomes) [min] | microsomal CLint at 1 μM ([6]; pooled human liver microsomes) [µL/min/mg] | Ki [1] [nM] | EC50 [2] [nM] | EC50 [3] [nM] | EC50 [4] [nM] | EC50 [5] [nM] | half-life at 1 μM ([6]; microsomes) [min] | microsomal CLint at 1 μM ([6]; microsomes) [µL/min/mg] | selectivity for 5-HT2A compared to the other serotonin receptors tested (in words) ([5]; functional agonist assays) |
| --- | --- | --- | --- | --- | --- | --- | --- | --- | --- | --- | --- | --- | --- | --- | --- | --- | --- | --- | --- | --- |
| CCCN1C[C@H](C(=O)N(CC)CC)C=C2c3cccc4c3C(CN4)C[C@H]21 (mixture of isomers) [Compound 36, (6aR,9R)—N,N-diethyl-7-propyl-4,5,5a,6,6a,7,8,9-octahydroindolo[4,3-fg]quinoline-9-carboxamide] | 10.7 | reduced in potency | 88.68 | 4.84 | 110.53 | 627 | 97.51 | 22.7 | 77.54 | 50.4 | 32.8 | 42.2 | – | – | – | – | – | – | – | – |
| CCN(CC)C(=O)[C@@H]1C=C2c3cccc4c3C(CN4)C[C@H]2N(C)C1 (mixture of isomers) [Compound 37, (6aR,9R)—N,N-diethyl-7-methyl-4,5,5a,6,6a,7,8,9-octahydroindolo[4,3-fg]quinoline-9-carboxamide] | 11.4 | reduced in potency | 108.98 | 17.2 | 24.06 | 465 | 90.74 | 19.4 | 76.37 | 76.6 | > 145 | < 9.6 | – | – | – | – | – | – | – | – |
| CCCN1C[C@H](C(=O)N(CC)CC)C=C2c3cccc4[nH]c(Br)c(c34)C[C@H]21 [Compound 9, (6aR,9R)-5-bromo-N,N-diethyl-7-propyl-4,6,6a,7,8,9-hexahydroindolo[4,3-fg]quinoline-9-carboxamide] | 1.11 | – | 101.39 | 96.5 | 89.6 | 400 | 81.46 | 264 | 75.81 | 228 | 9.9 | 140 | – | – | – | – | – | – | – | – |
| C[C@H]1C[C@H](C)N1C(=O)[C@@H]1C=C2c3cccc4[nH]cc(c34)C[C@H]2N(CCCF)C1 [Compound 26, ((2S,4S)-2,4-dimethylazetidin-1-yl)((6aR,9R)-7-(3-fluoropropyl)-4,6,6a,7,8,9-hexahydroindolo[4,3-fg]quinolin-9-yl)methanone] | 11.3 | – | 97.94 | 3.63 | 100.66 | 431 | 77.16 | 734 | 83.23 | 15.6 | 20.5 | 67.7 | – | – | – | – | – | – | – | – |
| C=CCN1C[C@H](C(=O)N2[C@@H](C)C[C@@H]2C)C=C2c3cccc4[nH]cc(c34)C[C@H]21 [Compound 27, ((6aR,9R)-7-allyl-4,6,6a,7,8,9-hexahydroindolo[4,3-fg]quinolin-9-yl)((2S,4S)-2,4-dimethylazetidin-1-yl)methanone] | 8.96 | – | 90.8 | 2.97 | 96.0 | 351 | 96.92 | 88.7 | 81.1 | 12 | 16.1 | 86.1 | – | – | – | – | – | – | – | – |
| CCN(CC)C(=O)[C@@H]1C=C2c3cccc4[nH]c(Br)c(c34)C[C@H]2N(C)C1 [Compound 35, (6aR,9R)-5-bromo-N,N-diethyl-7-methyl-4,6,6a,7,8,9-hexahydroindolo[4,3-fg]quinoline-9-carboxamide] | – | – | −1.58 | – | −0.13 | – | 76.8 | – | 67.74 | – | – | – | 0.73 | > 3160 | > 10000 | 214 | 66.4 | 24.2 | 57.4 | – |
| CN1C[C@H](C(=O)N(CCF)CCF)C=C2c3cccc4[nH]cc(c34)C[C@H]21 [Compound 38, (6aR,9R)—N,N-bis(2-fluoroethyl)-7-methyl-4,6,6a,7,8,9-hexahydroindolo[4,3-fg]quinoline-9-carboxamide] | 0.84 | – | 90.5 | 3.45 | 28.13 | 22.1 | 94.72 | 4.65 | 93.39 | 11.8 | 64 | 21.6 | – | – | – | – | – | – | – | – |
| CCN(CC)C(=O)[C@@H]1C=C2c3cccc4[nH]cc(c34)C[C@H]2N(CCF)C1 [Compound 39, (6aR,9R)—N,N-diethyl-7-(2-fluoroethyl)-4,6,6a,7,8,9-hexahydroindolo[4,3-fg]quinoline-9-carboxamide] | 4.54 | – | 91.21 | 239 | 85.46 | 137 | 99.00 | 1100 | 95.52 | 16.2 | 31.7 | 43.8 | – | – | – | – | – | – | – | – |
| CC[C@@H](C)NC(=O)[C@@H]1C=C2c3cccc4[nH]cc(c34)C[C@H]2N(CCC(F)(F)F)C1 [Compound 40, (6aR,9R)—N—((R)-sec-butyl)-7-(3,3,3-trifluoropropyl)-4,6,6a,7,8,9-hexahydroindolo[4,3-fg]quinoline-9-carboxamide] | 37.7 | – | 22.27 | > 10000 | 8.46 | > 10000 | 62.14 | 8310 | 45.12 | 169 | 3.2 | 435 | – | – | – | – | – | – | – | highly selective |
| CCN(CC)C(=O)[C@@H]1C=C2c3cccc4[nH]c(Br)c(c34)C[C@H]2N(CCCF)C1 [Compound 41, (6aR,9R)-5-bromo-N,N-diethyl-7-(3-fluoropropyl)-4,6,6a,7,8,9-hexahydroindolo[4,3-fg]quinoline-9-carboxamide] | 0.58 | – | 39.75 | > 10000 | 84.51 | 509 | 61.49 | > 10000 | 75.44 | 116 | 10.7 | 130 | – | – | – | – | – | – | – | – |
